Data taken from patent US8309612B2, “Method for treating age-related macular degeneration” (Santen Pharmaceutical Co., Ltd., priority 2007, dated 2012).

How the values were obtained:
[1] = tested on: ARPE-19 cells (a human retinal pigment epithelial cell line); test: Protective effect on hydrogen peroxide-induced cell damage in ARPE-19 cells; type: cell-based; conditions: for Cell protective effect on hydrogen peroxide-induced cell damage (in words): 6.25 μM or 12.5 μM, hydrogen peroxide 250 μM
Protocol: Oxidative stress causes retinal pigment epithelial dysfunction and is considered to be one of the causes of development or progression of AMD (Proc. Natl. Acad. Sci. USA, 2006; 103: 11282-11287). Therefore, by using ARPE-19 cells (a human retinal pigment epithelial cell line), the protective effect of Ebselen on hydrogen peroxide-induced cell damage was evaluated. In addition, the effects of quercetin and edaravone which are compounds generally known to have an antioxidative activity were also evaluated at the same time, and comparison study was performed.
(§1) ARPE-19 cells were seeded in a 96-well plate at 5×10^3 cells/well and cultured for 24 hours under the conditions of 37° C. in a 5% CO2/95% air atmosphere. As a culture medium for ARPE-19, DMEM/F12 containing 10% fetal bovine serum, 2 mM L-glutamine and 100 U/mL penicillin and 100 μg/mL streptomycin was used. Subsequently, the culture medium was removed and exchanged with a culture medium containing Ebselen, quercetin or edaravone, or a vehicle culture medium. Incidentally, each compound was dissolved in DMSO and diluted to 1000-fold with the culture medium to prepare a culture medium containing each compound at 6.25 μM or 12.5 μM. The vehicle culture medium was prepared by diluting DMSO without containing the compound to 1000-fold with the culture medium. After the cells were cultured for 24 hours under the conditions of 37° C. in a 5% CO2/95% air atmosphere, the culture medium was removed and exchanged with a culture medium containing hydrogen peroxide (250 μM). After the cells were further cultured for 24 hours under the above-mentioned conditions, the cell viability was measured. In the measurement, Cell Counting Kit-8 (Dojin Kagaku) was used.
(§2) The mean±the standard error (%) of the cell viability of each compound-treated group was expressed by taking the mean value of the cell viability of the untreated cells as 100%. The case number in each group is 4.

[2] = tested on: ARPE-19 cells; test: Protective effect on HNE-induced cell damage in ARPE-19 cells; type: cell-based, human; conditions: for Cell protective effect on HNE-induced cell damage (in words): 12.5 μM, HNE 100 μM
Description: It is known that reactive oxygen species promote membrane lipid peroxidation, resulting in production of HNE (Exp. Eye. Res., 2006; 83: 165-175). HNE forms a covalent bond with a cysteine, lysine or histidine side chain of a protein and inhibits the normal function of the protein, and therefore has a high cytotoxic activity (Invest. Opthalmol. Vis. Sci. 2007; 48: 3469-3479). It is reported that an HNE-modified protein is present also in drusen beneath the retina which is considered to be a deposit inducing AMD, and it is considered to cause retinal pigment epithelial cell damage and also considered to be one of the causes of development or progression of a disease attributed to retinal pigment epithelial damage (Mol. Vis., 2005; 11: 1122-1134, Invest. Opthalmol. Vis. Sci., 2003; 44: 3663-3668, FEBS Lett., 2002; 528: 217-221). Therefore, by using ARPE-19 cells, the protective effect of Ebselen on HNE-induced cell damage was evaluated. In addition, the effects of quercetin and edaravone which are compounds generally known to have an antioxidative activity were also evaluated at the same time, and comparison study was performed.
as §1, with “at” for “at 6.25 μM or”, “HNE (100” for “hydrogen peroxide (250”
as §2

[3] = tested on: choroidal neovascularization; test: Rat model of krypton laser-induced choroidal neovascularization; type: in vivo; conditions: for Inhibition rate (%): BID, oral, 12 days, choroidal neovascularization incidence on day 7 after photocoagulation vs vehicle
Protocol: The usefulness of Ebselen was evaluated using a rat model of laser-induced choroidal neovascularization.
A rat was given general anesthesia by intramuscular administration of 1 ml/kg of a mixed solution of a 5% (w/v) ketamine hydrochloride injection solution and a 2% xylazine hydrochloride injection solution (7:1), and a 0.5% (w/v) tropicamide-0.5% phenylephrine hydrochloride ophthalmic solution was instilled into the eyes to cause mydriasis, and then, photocoagulation was performed with a krypton laser photocoagulation apparatus. The photocoagulation was performed in a posterior fundus at eight spots per eye sparsely by focusing on the retinal deep layer avoiding thick retinal blood vessels (coagulation conditions: spot size: 100 μm, output: 100 mW, coagulation time: 0.1 sec). After the photocoagulation, the ocular fundus was photographed, and the site where the laser was irradiated was confirmed. […]
On day 7 after photocoagulation, each rat was given general anesthesia by intramuscular administration of 1 ml/kg of a mixed solution of a 5% (w/v) ketamine hydrochloride injection solution and a 2% xylazine hydrochloride injection solution (7:1), and a 0.5% (w/v) tropicamide-0.5% phenylephrine hydrochloride ophthalmic solution was instilled into the eyes to cause mydriasis, and then, 0.1 ml of a 10% fluorescein solution was injected into the tail vein, and fluorescence fundus photography was performed. In the fluorescence fundus photography, a spot where fluorescence leakage was not observed (absence of neovascularization) was judged as negative, and a spot where fluorescence leakage was observed was judged as positive. When there are two photocoagulation sites where a little fluorescence leakage was observed, they were judged as positive (presence of neovascularization). The choroidal neovascularization incidence rate (%) was calculated from the number of positive spots relative to the eight laser irradiation spots in accordance with Equation 1, and the inhibition rate (%) of the drug to be evaluated was calculated in accordance with Equation 2. […]

[4] = tested on: ischemia-induced neovascularization in hindlimb tissues; conditions: hindlimb tissues of mice; cited from earlier work
[5] = tested on: carotid artery remodeling and neovascularization; conditions: p22phox transgenic mice; cited from earlier work
[6] = tested on: renal neovascularization; conditions: ZDF rats, repeated administration; cited from earlier work

Row | SMILES | Cell protective effect on hydrogen peroxide-induced cell damage (in words) [1] | viability at 6.25 µM ([1]; Homo sapiens, ARPE-19, compound 6.25 μM, 24 h pretreatment, then hydrogen peroxide 250 μM 24 h, untreated cells = 100%, mean ± standard error) [%] | viability at 12.5 µM ([1]; Homo sapiens, ARPE-19, compound 12.5 μM, 24 h pretreatment, then hydrogen peroxide 250 μM 24 h, untreated cells = 100%, mean ± standard error) [%] | Cell protective effect on HNE-induced cell damage (in words) [2] | viability at 12.5 µM ([2]; Homo sapiens, ARPE-19, compound 12.5 μM, 24 h pretreatment, then HNE 100 μM 24 h, untreated cells = 100%, mean ± standard error) [%] | Inhibition rate (%) ([3]; each dose: 5 mg/kg) | Inhibition rate (%) ([3]; each dose: 15 mg/kg) | Effect on choroidal neovascularization (in words) ([3]; rat models of laser-induced choroidal neovascularization, 5 or 15 mg/kg BID oral) | Effect on ischemia-induced neovascularization (in words) [4] | Effect on carotid artery remodeling and neovascularization (in words) [5] | Effect on renal neovascularization (in words) [6]
1 | O=c1c(O)c(-c2ccc(O)c(O)c2)oc2cc(O)cc(O)c12 [Quercetin, quercetin] | not found to have a cell protective effect at either concentration | 8 ± 0.1 | 3.8 ± 0.4 | not found to have a cell protective effect | 28.6 ± 0.9 | – | – | – | – | – | –
2 | O=c1c2ccccc2[se]n1-c1ccccc1 [Ebselen, 2-phenyl-1,2-benzisoselenazol-3(2H)-one] | strongly protected the cells against hydrogen peroxide-induced cell damage in a concentration-dependent manner | – | – | strongly protected the cells against HNE-induced cell damage | – | 26.9 | 28.9 | inhibits choroidal neovascularization | inhibited ischemia-induced neovascularization | inhibited endogenous hydrogen peroxide-induced carotid artery remodeling and neovascularization | renal neovascularization was restored
3 | CC1=NN(c2ccccc2)C(=O)C1 [Edaravone, edaravone] | not found to have a cell protective effect at either concentration | – | – | not found to have a cell protective effect | – | – | – | – | – | – | –
